Test results published in patent US9611251B2, “Substituted piperidine compounds and their use as orexin receptor modulators” (Janssen Pharmaceutica NV, priority 2013, dated 2017).
pKi: −log10 of the molar value. Where a name gives a salt, the structure may show the parent alone. Read-outs that look alike come from different tables or passages of the source.

Columns and labels:
[1] = biological target: human orexin 2 receptor (Homo sapiens (Human), UniProt O43614); assay: Human orexin 2 receptor radioligand binding ([3H]-EMPA); conditions: averages of 2-20 runs, read-out: hOX2 Ki
Sequence of human orexin 2 receptor (O43614 whole entry): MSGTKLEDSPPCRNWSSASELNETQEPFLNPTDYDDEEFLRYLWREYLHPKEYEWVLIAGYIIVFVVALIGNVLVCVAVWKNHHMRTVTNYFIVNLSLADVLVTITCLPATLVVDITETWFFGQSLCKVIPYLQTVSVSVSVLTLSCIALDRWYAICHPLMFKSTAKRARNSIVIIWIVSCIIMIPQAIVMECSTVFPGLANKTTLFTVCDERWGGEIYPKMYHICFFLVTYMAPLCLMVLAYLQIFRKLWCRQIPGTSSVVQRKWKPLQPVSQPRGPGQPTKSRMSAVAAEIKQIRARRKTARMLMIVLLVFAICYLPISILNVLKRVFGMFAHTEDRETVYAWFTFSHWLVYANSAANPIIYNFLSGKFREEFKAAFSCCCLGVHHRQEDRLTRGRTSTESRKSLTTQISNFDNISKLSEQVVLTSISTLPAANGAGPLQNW
Protocol: (§1) Data are analyzed using pc-Sandy macro and graphed on Graphpad Prism 5. For analysis, each concentration point is averaged from triplicate values and the averaged values are plotted on Graphpad Prism. The IC50 was determined by applying the following equation (GraphPad Prism 5.0, SanDiego) for one site competition where X=log (concentration) and Y=specific binding. Top denotes the total [^3H]-(1-(5-(2-fluoro-phenyl)-2-methyl-thiazol-4-yl)-1-((S)-2-(5-phenyl-(1,3,4)oxadiazol-2-ylmethyl)-pyrrolidin-1-yl)-methanone) binding, bottom denotes the nonspecific [^3H]-(1-(5-(2-fluoro-phenyl)-2-methyl-thiazol-4-yl)-1-((S)-2-(5-phenyl-(1,3,4)oxadiazol-2-ylmethyl)-pyrrolidin-1-yl)-methanone) binding. Graphpad Prism calculates Ki value from IC50 and the pre-determined Kd values for [^3H]-(1-(5-(2-fluoro-phenyl)-2-methyl-thiazol-4-yl)-1-((S)-2-(5-phenyl-(1,3,4)oxadiazol-2-ylmethyl)-pyrrolidin-1-yl)-methanone) and [3H]-EMPA. The Ki for each compound is then uploaded into 3DX. Each run comprises individual compounds in triplicate.
Human Orexin 2 Receptor Radioligand Binding Studies
HEK293 stably expressing human orexin 2 receptor (Genebank accession number NM_001526) were grown to confluency in DMEM (Hyclone, cat #SH30022), 10% FBS, 1×Pen/Strep, 1× NaPyruvate, 10 mM HEPES, 600 ug/ml G418 media on 150 cm^2 tissue culture plates, washed with 5 mM EDTA in PBS (HyClone Dulbecco's Phosphate Buffered Saline 1× with Calcium and Magnesium, Cat #SH30264.01, hereafter referred to simply as PBS) and scraped into 50 ml tubes. After centrifugation (2K×G, 5 min at 4° C.), the supernatant was aspirated and the pellets frozen and stored at −80° C. […] Each cell pellet from a 15 cm plate was resuspended in 10 mL, stored on ice, and homogenized for 45 sec just prior to addition to the reactions. Competition binding experiments in 96 well polypropylene plates were performed using [^3H]-EMPA (Moraveck Corporation, specific activity=29.6 Ci/mmol), diluted to a 5 nM concentration in PBS (2 nM final concentration). […] The final concentration of DMSO in the reactions is equal to or less than 0.1%. Total and nonspecific binding was determined in the absence and presence of 10 μM almorexant. The total volume of each reaction is 200 μL (20 μL of diluted compounds, 80 μL of [^3H]-EMPA diluted in PBS and 100 μL of the cell suspension). […] The plates were washed 3 times by aspirating 30 ml PBS through the plates. Plates were dried in 55° C. oven for 60 min, scintillation fluid was added, and the radioactivity was counted on a Topcount (Packard).

[2] = biological target: rat orexin 1 receptor (Rattus norvegicus, UniProt P56718); assay: Rat orexin 1 receptor radioligand binding
Protocol: as §1
Rat and Human Orexin 1 Receptor Radioligand Binding Studies
After centrifugation (2K×G, 5 min at 4° C.), the supernatant was aspirated and the pellets frozen and stored at −80° C. […] Each cell pellet from a 15 cm plate was resuspended in 10 mL, stored on ice, and homogenized for 45 sec prior to addition to the reactions. Competition binding experiments in 96 well polypropylene plates were performed using [^3H]-(1-(5-(2-fluoro-phenyl)-2-methyl-thiazol-4-yl)-1-((S)-2-(5-phenyl-(1,3,4)oxadiazol-2-ylmethyl)-pyrrolidin-1-yl)-methanone) (Moraveck Corporation, specific activity=35.3 Ci/mmol), diluted to a 10 nM concentration in PBS (4 nM final). […] The final concentration of DMSO in the reactions is equal to or less than 0.1%. Total and nonspecific binding was determined in the absence and presence of 10 μM almorexant. The total volume of each reaction is 200 μL (20 μL of diluted compounds, 80 μL of [^3H]-(1-(5-(2-fluoro-phenyl)-2-methyl-thiazol-4-yl)-1-((S)-2-(5-phenyl-(1,3,4)oxadiazol-2-ylmethyl)-pyrrolidin-1-yl)-methanone) diluted in PBS and 100 μL of the cell suspension). […] The plates were washed 3 times by aspirating 30 ml PBS through the plates. Plates were dried in 55° C. oven for 60 min, scintillation fluid was added, and the radioactivity was counted on a Topcount (Packard).

[3] = rat orexin 1 receptor radioligand binding, averages of 2-20 runs, read-out: rOX1 Ki

SMILES | pKi [1] | pKi [2, 3] | pKi [2]
Cc1ccc(-c2ncccn2)c(C(=O)N2CCC[C@@H](Nc3cc(C)nc(C(F)(F)F)n3)[C@@H]2C)c1 (racemic) [Example 7, (±)-trans-(5-methyl-2-(pyrimidin-2-yl)phenyl)(2-methyl-3-((6-methyl-2-(trifluoromethyl)pyrimidin-4-yl)amino)piperidin-1-yl)methanone] | 6.61 |  | 
C[C@H]1[C@H](Oc2ccc(C(F)(F)F)cn2)CCCN1C(=O)c1cccnc1-n1nccn1 [Example 153, (2-(2H-1,2,3-triazol-2-yl)pyridin-3-yl)((2S,3R)-2-methyl-3-((5-(trifluoromethyl)pyridin-2-yl)oxy)piperidin-1-yl)methanone] | < 5.00 | 6.45 | 
COc1ccc(C(=O)N2CCC[C@@H](Nc3ncc(C(F)(F)F)cn3)[C@@H]2C)c(Cl)n1 (relative stereo) [Example 201, (2-chloro-6-methoxypyridin-3-yl)((2S*,3R*)-2-methyl-3-((5-(trifluoromethyl)pyrimidin-2-yl)amino)piperidin-1-yl)methanone] | < 5.00 | < 5.00 | 
Cc1ccc(C(=O)N2CCC[C@@H](Nc3nc4ccccc4o3)[C@@H]2C)c(-n2nccn2)n1 [Example 75, ((2S,3R)-3-(benzo[d]oxazol-2-ylamino)-2-methylpiperidin-1-yl)(6-methyl-2-(2H-1,2,3-triazol-2-yl)pyridin-3-yl)methanone] | 5.05 |  | 
Cc1ccc(-n2nccn2)c(C(=O)N2CCC[C@@H](Oc3ccc(C(F)(F)F)cn3)[C@@H]2C)n1 (racemic) [Example 109, (±)-trans-(2-methyl-3-((5-(trifluoromethyl)pyridin-2-yl)oxy)piperidin-1-yl)(6-methyl-3-(2H-1,2,3-triazol-2-yl)pyridin-2-yl)methanone] | 6.33 |  | 
Cc1cc(N[C@@H]2CCCN(C(=O)c3cc(F)ccc3-c3ncccn3)[C@H]2C)nc(C(F)(F)F)n1 (racemic) [Example 9, (±)-trans-(5-fluoro-2-(pyrimidin-2-yl)phenyl)(2-methyl-3-((6-methyl-2-(trifluoromethyl)pyrimidin-4-yl)amino)piperidin-1-yl)methanone] | 5.65 |  | 
C[C@H]1[C@H](Nc2cnc(C(F)(F)F)cn2)CCCN1C(=O)c1cccc(F)c1-c1ncccn1 (relative stereo) [Example 207, (3-fluoro-2-(pyrimidin-2-yl)phenyl)((2S*,3R*)-2-methyl-3-((5-(trifluoromethyl)pyrazin-2-yl)amino)piperidin-1-yl)methanone] | 6.41 |  | 
Cc1ccc(C(=O)N2CCC[C@@H](Nc3cnc(Cl)cn3)[C@@H]2C)c(-n2nccn2)c1 (relative stereo) [Example 180, ((2S*,3R*)-3-((5-chloropyrazin-2-yl)amino)-2-methylpiperidin-1-yl)(4-methyl-2-(2H-1,2,3-triazol-2-yl)phenyl)methanone] | 5.72 |  | 
Cc1ccc(-n2nccn2)c(C(=O)N2CCC[C@@H](Oc3ccc(C(F)(F)F)cn3)[C@@H]2C)n1 [Example 108, ((2S,3R)-2-methyl-3-((5-(trifluoromethyl)pyridin-2-yl)oxy)piperidin-1-yl)(6-methyl-3-(2H-1,2,3-triazol-2-yl)pyridin-2-yl)methanone] | 6.52 |  | 
COc1ccc(C(=O)N2CCC[C@@H](Nc3cnc(Cl)cn3)[C@@H]2C)c(-n2nccn2)c1 (relative stereo) [Example 186, ((2S*,3R*)-3-((5-chloropyrazin-2-yl)amino)-2-methylpiperidin-1-yl)(4-methoxy-2-(2H-1,2,3-triazol-2-yl)phenyl)methanone] | 5.03 | 6.56 | 
Cc1ccc(-c2ncco2)c(C(=O)N2CCC[C@@H](Nc3ccc(C(F)(F)F)cn3)[C@@H]2C)n1 [Example 25, ((2S,3R)-2-methyl-3-((5-(trifluoromethyl)pyridin-2-yl)amino)piperidin-1-yl)(6-methyl-3-(oxazol-2-yl)pyridin-2-yl)methanone hydrochloride] |  |  | 7.92
Cc1cnc(C(=O)N2CCC[C@@H](Nc3nnc(C(F)(F)F)s3)[C@@H]2C)c(-n2nccn2)c1 (relative stereo) [Example 195, ((2S*,3R*)-2-methyl-3-((5-(trifluoromethyl)-1,3,4-thiadiazol-2-yl)amino)piperidin-1-yl)(5-methyl-3-(2H-1,2,3-triazol-2-yl)pyridin-2-yl)methanone] |  | 6.45 | 
Cc1ccc(C(=O)N2CCC[C@@H](Nc3ccc(C(F)(F)F)cn3)[C@@H]2C)c(-n2nccn2)c1 (racemic) [Example 13, (±)-trans-(4-methyl-2-(2H-1,2,3-triazol-2-yl)phenyl)(2-methyl-3-((5-(trifluoromethyl)pyridin-2-yl)amino)piperidin-1-yl)methanone] |  | 7.80 | 
Cc1cnc(C(=O)N2CCC[C@@H](Nc3nc4ccccc4o3)[C@@H]2C)c(-n2nccn2)c1 [Example 73, ((2S,3R)-3-(benzo[d]oxazol-2-ylamino)-2-methylpiperidin-1-yl)(5-methyl-3-(2H-1,2,3-triazol-2-yl)pyridin-2-yl)methanone] | 5.64 | 8.10 | 
COc1ccc(C(=O)N2CCC[C@@H](Oc3ncc(C(F)(F)F)cn3)[C@@H]2C)c(-n2nccn2)c1 [Example 174, (4-methoxy-2-(2H-1,2,3-triazol-2-yl)phenyl)((2S,3R)-2-methyl-3-((5-(trifluoromethyl)pyrimidin-2-yl)oxy)piperidin-1-yl)methanone] | < 5.00 | 6.30 | 
C[C@H]1[C@H](Nc2ccc(Cl)cn2)CCCN1C(=O)c1ccccc1-n1nccn1 [Example 100, (2-(2H-1,2,3-triazol-2-yl)phenyl)((2S,3R)-3-((5-chloropyridin-2-yl)amino)-2-methylpiperidin-1-yl)methanone] | 6.72 |  | 
CCOc1ccc(C)nc1C(=O)N1CCC[C@@H](Nc2ccc(C(F)(F)F)cn2)[C@@H]1C (relative stereo) [Example 194, (3-ethoxy-6-methylpyridin-2-yl)((2S*,3R*)-2-methyl-3-((5-(trifluoromethyl)pyridin-2-yl)amino)piperidin-1-yl)methanone] | 6.50 |  | 
Cc1cccc(C(=O)N2CCC[C@@H](Oc3ncc(Cl)cn3)[C@@H]2C)c1-n1nccn1 [Example 163, ((2S,3R)-3-((5-chloropyrimidin-2-yl)oxy)-2-methylpiperidin-1-yl)(3-methyl-2-(2H-1,2,3-triazol-2-yl)phenyl)methanone] | 5.98 |  | 
C[C@H]1[C@H](Nc2ncc(C(F)(F)F)cn2)CCCN1C(=O)c1cccc(F)c1-c1ncccn1 (relative stereo) [Example 200, (3-fluoro-2-(pyrimidin-2-yl)phenyl)((2S*,3R*)-2-methyl-3-((5-(trifluoromethyl)pyrimidin-2-yl)amino)piperidin-1-yl)methanone] | 6.01 |  | 
C[C@H]1[C@H](Nc2ncc(C(F)(F)F)cn2)CCCN1C(=O)c1ccc(F)cc1-c1ncccn1 (relative stereo) [Example 202, (4-fluoro-2-(pyrimidin-2-yl)phenyl)((2S*,3R*)-2-methyl-3-((5-(trifluoromethyl)pyrimidin-2-yl)amino)piperidin-1-yl)methanone] | 5.82 |  | 
C[C@H]1[C@H](Oc2ccc(C(F)(F)F)cn2)CCCN1C(=O)c1ncccc1-c1ncccn1 (relative stereo) [Example 210, ((2S*,3R*)-2-methyl-3-((5-(trifluoromethyl)pyridin-2-yl)oxy)piperidin-1-yl)(3-(pyrimidin-2-yl)pyridin-2-yl)methanone] | 6.13 |  | 
